# Peptide text beside a SMILES is read from it.
# Tests used:
# OX40R-IgG1 = target: T1, OX40R-IgG1 (Homo sapiens, UniProt P43489); assay: Fluorescence quenching assay of OX40R-IgG1; format: binding
# T1 construct: extracellular portion of human OX40R (amino acids 1-208 of SWISSPROT Acc. No P43489); human IgG1 constant region (hinge, CH2 and CH3); made in house; purified from the supernatant on protein G
# T1 sequence (P43489 29-208): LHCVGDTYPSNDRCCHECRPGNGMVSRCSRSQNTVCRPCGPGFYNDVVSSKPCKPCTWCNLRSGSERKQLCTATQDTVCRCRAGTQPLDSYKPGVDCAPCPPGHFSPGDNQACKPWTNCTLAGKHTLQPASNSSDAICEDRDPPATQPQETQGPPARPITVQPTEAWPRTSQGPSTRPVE
# Protocol: The fluorescence quenching assay was performed as previously described (Golabek A et al., 2000). OX40R-IgG1 (35 micrograms) was dissolved in 500 microliters of PBS and the fluorescence spectum was recorded at 295-420 nanometers with an excitation wavelength of 290 nanometers using a spectrofluorimeter (Perkin Elmer LS50B) with the slits set at 5 nanometers. Fluorescence spectra of human OX40R-IgG1 were then recorded in the presence of increasing concentrations (5-1000 nM) of P5 and P5-1 peptides after 15 minutes of equilibration. The fluorescence change at 336 nanometers was plotted versus peptide concentration and the resulting curves were analyzed by nonlinear regression fit with Prism® software (GraphPad).
# The affinity of the peptides identified in Example 1 as inhibitor of OX40L-OX40R interaction was evaluated by fluorescence quenching spectroscopy, a technology allowing such measurements in solution, under native conditions and without beads or other supports. This method is based on monitoring the changes in the intrinsic fluorescence of a protein (OX40R-IgG1) upon its binding with another protein (P5 or P5-1). […]
# [1] = target: T2, OX40L-OX40R interaction (OX40R-IgG1 / OX40L-CD8) (Homo sapiens, UniProt P43489); assay: Alphascreen-based competition assay (displacement of OX40L-CD8 from OX40R-IgG1); format: binding; conditions: for inhibition of binding of OX40R to OX40L (in words): Alphascreen-based competition assay
# T2 sequence (P43489 29-208): T1 sequence (P43489 29-208)
# Protocol: Alphascreen™ modified acceptor and donor beads were purchased (Biosignal Packard). OX40R-IgG1 and OX40L-CD8 fusion proteins were immobilized, respectively, onto protein A-conjugated acceptor beads and, by the means of a biotinylated anti-CD8 antibody, onto streptavidin-conjugated donor beads.
# The binding assay was performed using Costar® 384-well white polystyrene plates (Corning). Each well of a 384-well plate contained a reaction mix having a volume of 25 microliters. Each of the five components of the reaction mix (OX40R-IgG1, OX40L-CD8, biotinylated anti-CD8, streptavidin-conjugated donor beads, and Protein A-conjugated acceptor beads) was added in a volume of 5 microliters. All dilutions were made in assay buffer (Phosphate Buffer Saline and 0.1% BSA), with or without dimethyl sulfoxide (DMSO).
# In the standard assay, OX40-IgG1 and OX40L-CD8 were incubated together for 30 minutes, and then biotinylated anti-CD8 antibody (10 nM) was added. Following another incubation period of 30 minutes, streptavidin donor beads (20 μg/ml) and Protein A acceptor beads (20 μg/ml) were added to each individual well. The plate was counted 1 hour later using a Packard Fusion™ reader (Biosignal Packard) set at a read time of 1 second/well. Owing to the light sensitivity of the donor and acceptor beads, the experiments were carried out under blue light and all incubation periods were performed at room temperature. The plate was read at an excitation wavelength of 680 nanometers combined with a shorter emission wavelength of 520-620 nanometers.
# All KD, IC50 and EC50 values were calculated using Prism® software (Graphpad Software). The transformation of IC50 values into Ki values was performed using the Cheng-Prusoff equation (Cheng Y C and Prusoff W H, 1973).
# The ability of two known competitors of OX40L-OX40R interactions (untagged recombinant human soluble OX40L and suramin), which are themselves unable to generate an Alphascreen™ signal in this assay in absence of OX40L-CD8, to displace OX40L-CD8 from OX40R-IgG1 was investigated. The displacement experiments were performed, taking into consideration the approximate KD value, with a concentration of OX40L-CD8 (40 nM) that was 4 times greater than that of the OX40R-IgG1 (10 nM). Increasing concentrations of OX40L (3 μM-0.1 pM) or suramin (1 mM[…]1 nM) were added to a reaction mixture also containing OX40-IgG1 (10 nM) and OX40L-CD8 (40 nM). […] This latter value for suramin is similar to reported values for inhibition of TNF-α binding to the TNF receptor (Gray P W et al., 1990).
# The soluble components (OX40-IgG1, OX40L-CD8 and biotinylated anti-CD8 antibody) were mixed at the concentration described before for the competition assays with OX40L and suramin (FIG. 4), together with various concentrations of each peptide in a 5 microliter volume into a first addition step. The streptavidin donor and Protein A acceptor beads were added 30 minutes later. The plates were incubated for 2 hours in the dark, at room temperature and with shaking, before reading at a long excitation wavelength of 680 nm combined with a shorter emission wavelength of 520-620 nanometers, as described in Example 1.
# OX40R = target: T3, OX40R (Homo sapiens, UniProt P43489); conditions: literature value; read-out: Kd of OX40L (homotrimer) for OX40R; cited from earlier work
# T3 sequence (P43489 29-277): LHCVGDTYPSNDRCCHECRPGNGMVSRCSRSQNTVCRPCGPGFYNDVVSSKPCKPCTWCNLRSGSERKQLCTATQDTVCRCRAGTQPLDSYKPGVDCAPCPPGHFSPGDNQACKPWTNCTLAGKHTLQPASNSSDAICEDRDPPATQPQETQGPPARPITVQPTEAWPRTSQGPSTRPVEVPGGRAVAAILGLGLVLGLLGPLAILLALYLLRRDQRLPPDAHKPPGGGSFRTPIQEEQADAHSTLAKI
molecule,measurement,setting,value
"CC[C@H](C)[C@H](NC(=O)[C@H](CC(N)=O)NC(=O)[C@@H](NC(=O)[C@H](CCC(=O)O)NC(=O)[C@H](CCC(N)=O)NC(=O)[C@H](CO)NC(=O)[C@H](Cc1ccccc1)NC(=O)[C@H](Cc1ccc(O)cc1)NC(=O)CN)C(C)C)C(=O)N[C@@H](CO)C(=O)O [P5-1, GYFSQEVNIS] (H-GYFSQEVNIS-OH; N-terminus and C-terminus assumed)",Kd,OX40R-IgG1,~0.0246 µM
CC[C@H](C)[C@H](N)C(=O)N[C@H](C(=O)N[C@@H](CC(N)=O)C(=O)N[C@@H](CS)C(=O)N[C@@H](CC(=O)O)C(=O)NCC(=O)N[C@@H](Cc1ccccc1)C(=O)N[C@@H](Cc1ccc(O)cc1)C(=O)N[C@@H](CC(C)C)C(=O)N[C@H](C(=O)N[C@@H](CO)C(=O)N[C@@H](CC(C)C)C(=O)N[C@@H](CCCCN)C(=O)NCC(=O)N[C@@H](Cc1ccc(O)cc1)C(=O)N[C@@H](Cc1ccccc1)C(=O)N[C@@H](CO)C(=O)N[C@@H](CCC(N)=O)C(=O)N[C@@H](CCC(=O)O)C(=O)N[C@H](C(=O)N[C@@H](CC(N)=O)C(=O)N[C@H](C(=O)N[C@@H](CO)C(=O)N[C@@H](CC(C)C)C(=O)N[C@@H](Cc1c[nH]cn1)C(=O)N[C@@H](Cc1ccc(O)cc1)C(=O)N[C@@H](CCC(N)=O)C(=O)N[C@@H](CCCCN)C(=O)N[C@@H](CC(=O)O)C(=O)N[C@@H](CCC(=O)O)C(=O)N[C@@H](CCC(=O)O)C(=O)O)[C@@H](C)CC)C(C)C)[C@@H](C)CC)[C@@H](C)CC [P5] (H-IINCDGFYLISLKGYFSQEVNISLHYQKDEE-OH; N-terminus and C-terminus assumed),inhibition of binding of OX40R to OX40L (in words),[1],micromolar range
"Cc1ccc(C(=O)Nc2ccc(S(=O)(=O)O)c3cc(S(=O)(=O)O)cc(S(=O)(=O)O)c23)cc1NC(=O)c1cccc(NC(=O)Nc2cccc(C(=O)Nc3cc(C(=O)Nc4ccc(S(=O)(=O)O)c5cc(S(=O)(=O)O)cc(S(=O)(=O)O)c45)ccc3C)c2)c1 [suramin, Suramin, reference compound]",IC50,"[1]; OX40-IgG1 10 nM, OX40L-CD8 40 nM, read-out: IC50 for competition of OX40L-CD8 binding",79 µM
same,Ki,"[1]; OX40-IgG1 10 nM, OX40L-CD8 40 nM, read-out: Ki (Cheng-Prusoff from IC50)",26.3 µM
"EKGFILTSQKEDEIMKVQNNSVIINCDGFYL (human OX40R binding peptides) [P4, peptide corresponding to amino acids 72-102 of human OX40L]",inhibition of binding of OX40R to OX40L (in words),[1],bind OX40R very poorly
"OX40L: recombinant human soluble OX40L, extracellular portion, prepared as GST fusion in baculovirus system; b9 value is for natural homotrimer",-log IC50±SEM,"[1]; OX40-IgG1 10 nM, OX40L-CD8 40 nM",8.23±0.35
same,Kd,OX40R,0.0002 to 0.0004 µM
